Data published in PMC12881670, “Investigation into ligand selectivity and bias at the formyl peptide receptor family” (The Journal of Pharmacology and Experimental Therapeutics, 2025).

Assays:
Mm_Fpr2 [1] = biological target: T1, Mm_Fpr2 (Mus musculus, UniProt O88536); test: BRET receptor-RLuc8 interaction with Venus-mGsi; assay type: cell-based
T1 construct: expressed in transfected cells
T1 sequence (O88536 1-351): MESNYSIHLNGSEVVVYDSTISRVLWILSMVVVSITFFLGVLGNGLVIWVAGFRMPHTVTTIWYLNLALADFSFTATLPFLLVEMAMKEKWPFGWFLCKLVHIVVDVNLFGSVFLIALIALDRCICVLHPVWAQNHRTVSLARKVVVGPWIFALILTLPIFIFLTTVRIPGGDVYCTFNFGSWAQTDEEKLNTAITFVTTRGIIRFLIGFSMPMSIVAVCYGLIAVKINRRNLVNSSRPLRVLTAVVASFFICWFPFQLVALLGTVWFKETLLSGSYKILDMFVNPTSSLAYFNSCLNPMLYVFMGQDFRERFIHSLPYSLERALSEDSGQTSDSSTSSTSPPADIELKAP
Description: (§1) BRET1 assays to measure FPR interaction with Venus-mGsi and Arrestin 3-yellow fluorescent protein (YFP) were performed as previously described.[31]^,[32] Briefly, all FPRs C-terminally fused to Renilla Luciferase (donor, RLuc8) were transiently transfected along with either Venus-mGsi or YFP-Arrestin 3 (acceptor) at a ratio of 1:4. 24 hours post transfection, cells were replated into white-walled, 96-well plates and cultured for a further 24–48 hours. On the day of experimentation, growth media was aspirated and replaced with 80 μl Hanks Buffered Saline Solution and equilibrated for 30 minutes. Coelenterazine h was added to each well to a final concentration of 5 μM for 5 minutes before the addition of each compound, and the plate was incubated for a further 10 minutes at 37 °C before being read on a ClarioStar Plus, with luminescence measured at 480/20 nm (donor) and 530/20 (acceptor). The BRET ratio (acceptor/donor) was determined, and the background (untreated) subtracted to give the N-BRET value.
(§2) All data were analyzed using GraphPad Prism using the nonlinear regression log(agonist) versus response (3 parameters) function for all assays, except binding, which was analyzed using the One site-FitlogIC50 function. Bias calculations were carried out following IUPHAR guidelines as described,[27]^,[37] and data were presented as the Δ Activity ratio (Log[EmaxB/EC50B])-(Log[EmaxA/EC50A]).

Hs_FPR1 [2] = biological target: T2, Hs_FPR1 (Homo sapiens, UniProt P21462); test: BRET receptor-RLuc8 interaction with Venus-mGsi; assay type: cell-based
T2 construct: expressed in transfected cells
T2 sequence (P21462 1-350): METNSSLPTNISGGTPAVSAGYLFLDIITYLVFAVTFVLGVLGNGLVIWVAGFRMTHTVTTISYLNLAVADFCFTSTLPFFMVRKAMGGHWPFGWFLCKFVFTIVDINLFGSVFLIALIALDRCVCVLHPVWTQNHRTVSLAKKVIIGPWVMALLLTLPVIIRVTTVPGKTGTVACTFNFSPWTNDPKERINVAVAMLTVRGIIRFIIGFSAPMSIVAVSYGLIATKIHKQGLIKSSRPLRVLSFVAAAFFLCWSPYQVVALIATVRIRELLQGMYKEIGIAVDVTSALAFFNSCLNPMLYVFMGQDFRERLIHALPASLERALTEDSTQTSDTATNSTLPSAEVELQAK
Description: as §1, §2

Mm_Fpr1 [3] = biological target: T3, Mm_Fpr1 (Mus musculus, UniProt P33766); test: BRET receptor-RLuc8 interaction with Venus-mGsi; assay type: cell-based
T3 construct: expressed in transfected cells
T3 sequence (P33766 1-364): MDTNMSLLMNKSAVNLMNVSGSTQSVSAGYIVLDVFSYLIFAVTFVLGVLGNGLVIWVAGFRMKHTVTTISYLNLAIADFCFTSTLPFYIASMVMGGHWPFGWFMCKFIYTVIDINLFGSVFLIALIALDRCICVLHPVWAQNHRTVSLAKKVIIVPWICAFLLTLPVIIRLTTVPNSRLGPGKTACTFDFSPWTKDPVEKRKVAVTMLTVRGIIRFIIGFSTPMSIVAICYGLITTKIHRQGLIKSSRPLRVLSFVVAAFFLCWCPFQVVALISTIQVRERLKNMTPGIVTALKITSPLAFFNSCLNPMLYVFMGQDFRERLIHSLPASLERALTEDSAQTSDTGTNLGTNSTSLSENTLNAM
Description: as §1, §2

Hs_FPR2 [4] = biological target: T4, Hs_FPR2 (Homo sapiens, UniProt P25090); test: BRET receptor-RLuc8 interaction with Venus-mGsi; assay type: cell-based
T4 construct: expressed in transfected cells
T4 sequence (P25090 1-351): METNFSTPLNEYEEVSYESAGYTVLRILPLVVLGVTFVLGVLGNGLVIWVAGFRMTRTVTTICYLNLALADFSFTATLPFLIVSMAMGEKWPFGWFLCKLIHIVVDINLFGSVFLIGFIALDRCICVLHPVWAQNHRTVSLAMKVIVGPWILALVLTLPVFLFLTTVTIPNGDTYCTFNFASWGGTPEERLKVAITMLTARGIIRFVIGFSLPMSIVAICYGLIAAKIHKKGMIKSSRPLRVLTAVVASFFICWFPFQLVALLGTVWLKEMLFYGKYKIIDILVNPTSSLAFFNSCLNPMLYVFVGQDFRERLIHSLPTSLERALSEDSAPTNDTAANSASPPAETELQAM
Description: as §1, §2

Mm_Fpr1 [5] = biological target: T3, Mm_Fpr1; test: Internalization of FLAG-tagged receptors by flow cytometry; assay type: cell-based; conditions: Mm_Fpr1, 30 min, relative to 1 μM WKYMVm
Description: Internalization of FPRs was measured by flow cytometry.[30] Briefly, cells were incubated with Alexa Fluor 657 conjugated M1 antiflag antibody (Sigma-Aldrich Cat# F3040, RRID:AB_439712) for 30 minutes at 37 °C to label surface receptors. Cells were then incubated with the indicated concentration of ligand before washing in PBS/0.04% EDTA to remove any remaining surface antibody. Remaining fluorescence was then measured using flow cytometry on either a BD FACScalibur or Attune, recording 5000 gated events. […] As a control, some samples were left untreated, and “strip only” was measured as a readout of constitutive endocytosis, and this value was subtracted from the data. Vehicle control (0.1% DMSO) had no effect on internalization of receptors.
as §2

Mm_Fpr2 [6] = biological target: T1, Mm_Fpr2; test: ERK1/2 phosphorylation by Western blotting; assay type: cell-based
Description: (§3) ERK phosphorylation was detected by Western blotting as previously described.[30] Briefly, HEK293 cells stably expressing FLAG-tagged FPRs were plated into 12-well culture plates until 90% confluent. On the day of the experiment, culture media was replaced with serum-free Dulbecco’s modified Eagle’s medium and incubated for 2 hours before stimulation with the indicated compounds. After 7 minutes, the media was removed and stimulation terminated by the addition of 100 μl sample buffer (0.5% SDS, Tris (pH 6.8), glycerol, at >90 °C).
as §2

Hs_FPR1 [7] = biological target: T2, Hs_FPR1; test: ERK1/2 phosphorylation by Western blotting; assay type: cell-based
Description: as §3, §2

Mm_Fpr1 [8] = biological target: T3, Mm_Fpr1; test: ERK1/2 phosphorylation by Western blotting; assay type: cell-based
Description: as §3, §2

Hs_FPR2 [9] = biological target: T4, Hs_FPR2; test: ERK1/2 phosphorylation by Western blotting; assay type: cell-based
Description: as §3, §2

[10] = test system: formyl peptide receptor family (Hs_FPR1, Hs_FPR2, Mm_Fpr1, Mm_Fpr2); test: Summary of main findings: receptor subtype selectivity and ligand bias across all readouts; set-up: species or system human and mouse; conditions: summary grade of ligand bias relative to WKYMVm; key not given
Description: To determine ligand bias, a reference ligand is required, that is, “balanced” for the pathways tested.[37] […] We then used measurements of the activity ratio (Log (Emax/EC50)) for each receptor, ligand, and pathway in an attempt to observe any ligand bias (Fig. 6).

FPR1 = conditions: at 100 nM; cited from earlier work
Mm_Fpr2 [11] = biological target: T1, Mm_Fpr2; test: BRET receptor-RLuc8 interaction with Arrestin 3-YFP; assay type: cell-based
Description: as §1, §2

Hs_FPR1 [12] = biological target: T2, Hs_FPR1; test: as above; assay type: cell-based
Description: as §1, §2

Mm_Fpr1 [13] = biological target: T3, Mm_Fpr1; test: as above; assay type: cell-based
Description: as §1, §2

Hs_FPR2 [14] = biological target: T4, Hs_FPR2; test: as above; assay type: cell-based
Description: as §1, §2

- Emax (Mm_Fpr2 [1]): 87.9%
- Emax (Hs_FPR1 [2]): 44.1%
- Emax (Mm_Fpr1 [3]): 37.5%
- Emax (Hs_FPR2 [4]): 79.2%
- agonist-induced internalization (words) (Mm_Fpr1 [5]): full agonists
- Emax at 1 µM (Mm_Fpr2 [6]): 128%
- Emax at 1 µM (Hs_FPR1 [7]): 141%
- Emax at 1 µM (Mm_Fpr1 [8]): 118%
- Emax at 1 µM (Hs_FPR2 [9]): 125%
- Bias [10]: No
- Emax (Mm_Fpr2 [11]): 94.3%
- Emax (Hs_FPR1 [12]): 75%
- Emax (Mm_Fpr1 [13]): 83.1%
- Emax (Hs_FPR2 [14]): 94.8%
Structure (SMILES): CSCC[C@H](NC(=O)[C@@H](NC(=O)[C@H](CCSC)NC(=O)[C@H](Cc1ccc(O)cc1)NC(=O)[C@H](CCCCN)NC(=O)[C@@H](N)Cc1c[nH]c2ccccc12)C(C)C)C(N)=O [WKYMVM]
- arrestin recruitment to FPR1, Pathhunter (FPR1): neither WKYMVM nor ACT-389949 resulted in recruitment
